Laboratory results as given in patent publication US5166348A, “Bornyl and isobornyl esters of carboxylic acids of condensed tetrahydroquinoxalines” (Uralsky politekhnichesky institut, priority 1989, dated 1992).
Values joined by “and” are separate entries in the source; they are usually repeats but may differ in a detail not shown here. Equal entries are not always repeated. “Also recorded” adds a separate entry of the source. Where two headings read alike, the source gives them in different places.

Legend:
mice [1] = settings: mouse, in vivo
[2] = acute toxicity, oral, mongrel albino mice; settings: mouse, in vivo
Procedure: Acute toxicity of the proposed compounds 1a through 1e was tested in experiments on mongrel albino mice with oral administration of the drug.

influenza virus B = type: in vivo, albino mice; settings: for % of diseased mice and of died mice / Efficiency, % / Elongation of animals life in test group compared with control / Mean incubation period / Factor of reduction of number of diseased mice (protection factor) / % of diseased mice and died mice / Elongation of animal life in test group (compared with control) / Mean Incubation / Protection factor: influenza virus B; for Factor of reduction of number of diseased mice (protection factor): compared with control
RS virus = RS virus reproduction in the lungs of infected cotton rats; type: in vivo; settings: intranasally
Procedure: (§1) Activity of the proposed compound 1a to the agent causing respiratory syncytial infection was tested. […]

influenza virus [3] = type: in vivo, mice
mice [4] = assay: toxicity for mice; settings: compared with remantadine
influenza virus C = assay: activity against influenza virus C in chick embryos, summary; type: in vivo
Source text: The activity of the proposed compound 1a against influenza virus C has been studied.

[5] = tested on: influenza virus C, C(Ulan-Ude)131/86; type: in vivo, chick embryos
influenza virus [6] = settings: given intranasally to pregnant mice + influenza virus
[7] = tested on: RS virus (strain Novoshakhtinsky 3080); assay: reproduction of RS virus in L-41 tissue culture; type: cell-based
Procedure: as §1

[8] = tested on: tick-borne encephalitis virus (Absettar strain); type: in vivo, mongrel albino mice
[9] = tested on: influenza virus C, C(USA)1233/47; type: in vivo, chick embryos
viruses = assay: spectrum of antiviral activity, summary
[10] = tested on: influenza virus C, C(Leningrad)412/83; type: in vivo, chick embryos
influenza virus [11] = type: in vivo, mice; remark: listed apart in the source
[12] = tested on: influenza virus C, C(Leningrad)393/87; type: in vivo, chick embryos
[13] = 1 mg/mouse, 24 hours and 1 hour before and 24, 48 and 72 hours after infection
[14] = 0.2 ml of 0.5% solution into the stomach

For `CCC(N)C12CC3CC(CC(C3)C1)C2` (stereo not shown) [adapromine, reference compound], the Toxicity for mice (mice [1]) was 6 mg/mouse, the LD50 [2] was 45 mg/kg and the “% of diseased mice and of died mice” value (influenza virus B; per os, 1 mg per animal) was 25% and 12% and 20%. For the same compound, the “Minimum effective dose against influenza viruses, type B” value (influenza virus B; influenza virus type B) was 1.0 mg/mouse and the “Chemotherapeutic index for influenza viruses, type B” value (influenza virus B; influenza virus type B, toxicity vs minimum effective dose) was 6.

For `CCN1c2ccccc2NC2C(C(=O)OC3CC4CCC3(C)C4(C)C)=C(C)OC21` (stereo not shown) [compound 1c, bornyl-2-methyl-9-ethyl-3a,4,9,9a-tetrahydrofuro [2,3-b] quinoxaline-3-carboxylate], the “% of diseased mice and of died mice” value (influenza virus B; per os, 1 mg per animal) was 25%, the “Efficiency, %” value (influenza virus B; per os, 1 mg per animal) was 64% and the “Elongation of animals life in test group compared with control” value (influenza virus B; per os, 1 mg per animal) was 2.4 days. The “Mean incubation period” value (influenza virus B; per os, 1 mg per animal) was 11.0 days and the “Factor of reduction of number of diseased mice (protection factor)” value (“Factor of reduction … (protection factor)” for short) (influenza virus B; per os, 1 mg per animal) was 2.8.

In the case of `CC1=C(C(=O)OC2CC3CCC2(C)C3(C)C)C2Nc3ccccc3N(C)C2O1` (stereo not shown) [compound 1a, isobornyl ester of 2,9-dimethyl-3a,4,9,9a-tetrahydrofuro [2,3-b] quinoxaline-3-carboxylic acid], the “virus reproduction in the lungs (in words)” value (RS virus) is reported as “decreases the virus reproduction in the lungs of the animals”, the “mean titre of the virus lower than in control group” value (RS virus; lungs, vs control group) is reported as 1.8-2.0 lg and the Toxicity for mice (mice [1]) is reported as 16 mg/mouse. For the same compound, the “protection and growth of nurslings, course of infection (in words)” value (influenza virus [3]; mouse, in vivo) was “protects their nurslings from infection and death; moreover, it promotes their normal growth as estimated by gain in weight; also recorded: almost does not differ from the weight of young mice borne from control mice; also recorded: promotes an asymptomatic course of infection in pregnant mice and formation of immunity in their posterity”, the “Mean weight of suckling mice, g, day 0” value (influenza virus [3]; plus influenza virus, day 0) was 1.5 g and the “Mean weight of suckling mice, g, day 3” value (influenza virus [3]; plus influenza virus, day 3) was 2.6 g. For the same compound, the “Mean weight of suckling mice, g, day 5” value (influenza virus [3]; plus influenza virus, day 5) was 3.4 g, the “Mean weight of suckling mice, g, day 7” value (influenza virus [3]; plus influenza virus, day 7) was 3.4 g and the “Mean weight of suckling mice, g, day 9” value (influenza virus [3]; plus influenza virus, day 9) was 3.6 g. The “toxicity lower than that of remantadine, times” value (mice [4]) was 2.5-3 times, the “activity against influenza virus C (in words)” value (influenza virus C) was “inhibits reproduction of influenza virus C” and the “Titre of virus (lg) in embryo” value [5] was 3.6 ± 0.3 lg. The “Inhibition of virus reproduction (lg)” value ([5]; vs solvent control) was 1.6 lg, the “Mortality rate among suckling mice, %, 4 days after infection” value (influenza virus [6]; 4 days) was 0% and the “Mortality rate among suckling mice, %, 7 days after infection” value (influenza virus [6]; 7 days) was 7%. The “Mortality rate among suckling mice, %, 8 days after infection” value (influenza virus [6]; 8 days) was 23%, the “Mortality rate among suckling mice, %, 11 days after infection” value (influenza virus [6]; 11 days) was 23% and the “% of diseased mice and died mice” value (influenza virus B; [13]) was 20%. For the same compound, the “Efficiency, %” value (influenza virus B; [13]) was 73%, the “Elongation of animal life in test group (compared with control)” value (influenza virus B; [13]) was 2.4 days and the “Mean Incubation” value (influenza virus B; [13]) was 11.0. The Protection factor (influenza virus B; [13]) was 3.7, the “% of diseased mice and of died mice” value (influenza virus B; per os, 1 mg per animal) was 20% and the “Efficiency, %” value (influenza virus B; per os, 1 mg per animal) was 73%. For the same compound, the “Elongation of animals life in test group compared with control” value (influenza virus B; per os, 1 mg per animal) was 2.4 days, the “Mean incubation period” value (influenza virus B; per os, 1 mg per animal) was 11.0 days and the “Factor of reduction … (protection factor)” value (influenza virus B; per os, 1 mg per animal) was 3.7. The “Minimum effective dose against influenza viruses, type B” value (influenza virus B; influenza virus type B) was 0.04 mg/mouse, the “% of test tubes with degenerated culture” value ([7]; L-41 tissue culture) was 17% and the “Intensity of reduction of quantity of test tubes with degenerated cultures” value ([7]; L-41 tissue culture) was 0.18. For the same compound, the “Factor of reduction of quantity of test tubes with degenerated cultures” value ([7]; L-41 tissue culture, vs 0.9% NaCl solution) was 5.3, the “effect on reproduction of RS virus (in words)” value ([7]; tissue culture L-41, strain Novoshakhtinsky 3030 as printed in text) was “inhibits reproduction of RS virus” and the “Efficiency, %” value [8, 14] was 70%. For the same compound, the “Elongation of animal life in group of treated animals” value [8, 14] was 1.5 days, the “Mean incubation period” value [8, 14] was 11.4 days and the “% of diseased mice and mice which died” value ([8]; 0.2 ml of 0.5% solution into the stomach, 4 h before and 24, 48, 72, 96 h after infection) was 18.7%. The “Factor of reduction of quantity of diseased mice (protective factor)” value ([8]; 0.2 ml of 0.5% solution into the stomach, vs physiological saline control) was 3.3, the “activity against the causative agent of tick-borne encephalitis (in words)” value ([8]; mouse, in vivo) was “antiviral activity of the compound against the causative agent of tick-borne encephalitis; also recorded: highly active against the causative agent of tick-borne encephalitis” and the mortality rate ([8]; test group, control group 62.5%) was 18.7%. The “decrease of mortality rate, times less” value ([8]; test vs control group) was 3.3 times, the “Titre of virus (lg) in embryo” value [9] was 2.8 ± 0.4 lg and the “Inhibition of virus reproduction (lg)” value ([9]; vs solvent control) was 1.7 lg. The “spectrum of antiviral activity (in words)” value (viruses) was “most pronounced effect against the virus of the tick-borne encephalitis, epidemic, influenza viruses A, B and C, including those resistant to remantadine, and also the virus causing respiratory syncytial infection”, the “Titre of virus (lg) in embryo” value [10] was 3.5 ± 0.3 lg and the “Inhibition of virus reproduction (lg)” value ([10]; vs solvent control) was 1.5 lg. For the same compound, the “% of lethal cases among mice after infection of their mothers, in 6 days” value (influenza virus [11]; given to female mice + virus, 6 days) was 3%, the “% of lethal cases among mice after infection of their mothers, in 7 days” value (influenza virus [11]; given to female mice + virus, 7 days) was 10% and the “% of lethal cases among mice after infection of their mothers, in 8 days” value (influenza virus [11]; given to female mice + virus, 8 days) was 10%. For the same compound, the “% of lethal cases among mice after infection of their mothers, in 9 days” value (influenza virus [11]; given to female mice + virus, 9 days) was 10%, the “% of lethal cases among mice after infection of their mothers, in 10 days” value (influenza virus [11]; given to female mice + virus, 10 days) was 13% and the “protection of sucklings (in words)” value (influenza virus [11]; given to pregnant or nursing mice) was “protects the sucklings from trasnplacental infection with the virus or infection from a diseased mouse”. The “Titre of virus (lg) in embryo” value [12] was 3.2 ± 0.3 lg and the “Inhibition of virus reproduction (lg)” value ([12]; vs solvent control) was 1.3 lg.

With `CC(N)C12CC3CC(CC(C3)C1)C2` (stereo not shown) [remantadine, reference compound] the Toxicity for mice (mice [1]) was 6 mg/mouse, the LD50 [2] was 640 mg/kg and the “% of diseased mice and died mice” value (influenza virus B; [13]) was 20%. For the same compound, the “Efficiency, %” value (influenza virus B; [13]) was 73%, the “Elongation of animal life in test group (compared with control)” value (influenza virus B; [13]) was 2.3 days and the “Mean Incubation” value (influenza virus B; [13]) was 10.9. It also gave a Protection factor (influenza virus B; [13]) of 3.7.

In the case of “bornyl-3a,5-dimethyl-2-phenyl-3a,4,4a,5,10,10a-hexahydro-1,3,4-thiadiazole[2,3-a] quinoxaline (2,3-d) pyrrole-4-carboxylate [compound 1d]”, the “% of diseased mice and of died mice” value (influenza virus B; per os, 1 mg per animal) is reported as 20%, the “Efficiency, %” value (influenza virus B; per os, 1 mg per animal) is reported as 72% and the “Elongation of animals life in test group compared with control” value (influenza virus B; per os, 1 mg per animal) is reported as 2.5 days. For the same compound, the “Mean incubation period” value (influenza virus B; per os, 1 mg per animal) was 11.0 days and the “Factor of reduction … (protection factor)” value (influenza virus B; per os, 1 mg per animal) was 3.6.

In the case of “isobornyl 3a,5-dimethyl-2-phenyl-3a,4,4a,5,10,10a-hexahydro-1,3,4-thiadiazole [2,3-a] quinoxaline [2,3-d]-pyrrole-4-carboxylate [compound 1e]”, the “% of diseased mice and of died mice” value (influenza virus B; per os, 1 mg per animal) is reported as 21%, the “Efficiency, %” value (influenza virus B; per os, 1 mg per animal) is reported as 71% and the “Elongation of animals life in test group compared with control” value (influenza virus B; per os, 1 mg per animal) is reported as 2.4 days. The “Mean incubation period” value (influenza virus B; per os, 1 mg per animal) was 10.9 days and the “Factor of reduction … (protection factor)” value (influenza virus B; per os, 1 mg per animal) was 3.4.

In the case of `CCN1c2ccccc2NC2C(C(=O)OC3CC4CCC3(C)C4(C)C)=C(C)OC21` (stereo not shown) [compound 1b, isobornyl ester of 2-methyl-9-ethyl-3a,4,9,9a-tetrahydrofuro [2,3-b] quinoxaline-3-carboxylic acid], the “% of diseased mice and of died mice” value (influenza virus B; per os, 1 mg per animal) is reported as 27%, the “Efficiency, %” value (influenza virus B; per os, 1 mg per animal) is reported as 65% and the “Elongation of animals life in test group compared with control” value (influenza virus B; per os, 1 mg per animal) is reported as 2.2 days. For the same compound, the “Mean incubation period” value (influenza virus B; per os, 1 mg per animal) was 10.0 days and the “Factor of reduction … (protection factor)” value (influenza virus B; per os, 1 mg per animal) was 2.9.
